# From ChEMBL document CHEMBL1201862, “PubChem BioAssay data set” (2004)
# The source made the active and inactive calls.
# Tests used:
# Cytochrome P450 2C9 = Cytochrome P450 2C9 (Homo sapiens, UniProt P11712)
# Cytochrome P450 2D6 = Cytochrome P450 2D6 (Homo sapiens, UniProt P10635);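 note: CYP2D6 member of a cytochrome P450 panel assay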
# Cytochrome P450 1A2 = molecular target: T1, Cytochrome P450 1A2 (Homo sapiens, UniProt P05177);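 note: PubChem cytochrome P450 panel assay, CYP1A2 panel member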
# T1 sequence (P05177 whole entry): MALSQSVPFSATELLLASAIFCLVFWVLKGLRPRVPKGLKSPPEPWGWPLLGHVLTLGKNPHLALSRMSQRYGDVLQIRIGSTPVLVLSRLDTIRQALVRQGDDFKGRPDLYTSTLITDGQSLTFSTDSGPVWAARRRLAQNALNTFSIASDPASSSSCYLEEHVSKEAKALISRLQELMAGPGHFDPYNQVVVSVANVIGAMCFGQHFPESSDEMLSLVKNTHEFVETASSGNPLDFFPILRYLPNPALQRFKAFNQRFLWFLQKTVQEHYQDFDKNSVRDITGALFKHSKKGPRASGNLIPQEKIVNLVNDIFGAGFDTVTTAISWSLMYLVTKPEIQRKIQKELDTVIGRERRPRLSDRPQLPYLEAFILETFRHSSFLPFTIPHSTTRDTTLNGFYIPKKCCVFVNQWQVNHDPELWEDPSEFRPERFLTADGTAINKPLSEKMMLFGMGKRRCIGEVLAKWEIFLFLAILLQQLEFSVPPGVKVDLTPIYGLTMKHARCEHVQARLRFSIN
# Cytochrome P450 2C19 = Cytochrome P450 2C19 (Homo sapiens, UniProt P33261); assay: Cytochrome panel assay with activity outcomes. Panel member name: p450-cyp2c19 Compounds with AC50 equal or less than 10 uM are considered active; type: functional; conditions: read-out: AC50
# [1] = reduction of Shn3 3'UTR-driven luciferase in osteoblasts – cell-based, Clone20 osteoblasts, firefly luciferase, cherry-picked, dose response (AID 624132); type: functional;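 note: firefly luciferase luminescence from reporter carrying the Shn3 3'UTR in osteoblasts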
# [2] = microbe, parasite or virus in culture; type: functional; conditions: Mycobacterium tuberculosis
# [3] = loss of viability in HepG2 cells – cell-based, CellTiter-Glo, cherry-picked, cytotoxicity control for Shn3 inhibitor project, dose response (AID 624134); type: functional
# [4] = non-specific 3'UTR reporter inhibition in Clone20-Shn3RL – cell-based, Renilla luciferase, cherry-picked, counter-screen for Shn3 inhibitor project, dose response (AID 624133); type: functional
# Fatty acid synthase [5] = molecular target: T2, Fatty acid synthase (Homo sapiens, UniProt P49327); assay: inhibition of human FAS-TE enzyme activity – biochemical, kinetic fluorescence intensity, dose response (AID 624326); type: functional;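 note: rate of fluorescence rise from hydrolysis of a fluorogenic O-methyl fluorescein ester substrate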
# Fatty acid synthase [6] = molecular target: T2, Fatty acid synthase; assay: inhibition of human FAS-TE enzyme activity – biochemical, endpoint fluorescence intensity, uHTS hits, dose response (AID 624327); type: functional;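 note: fluorescence from hydrolysis of an O-methyl fluorescein acyl ester substrate by the enzyme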
# [7] = molecular target: FAD-linked sulfhydryl oxidase ALR (Homo sapiens, UniProt P55789); assay: ALR-catalysed DTT oxidation blockers – biochemical, H2O2 detection, luminescence, cherry-pick, dose response (AID 493248)
# Genome polyprotein = Genome polyprotein (dengue virus type 2, UniProt P29990); assay: flavivirus cap methylation enzyme inhibition – biochemical, confirmation dose response, primary screen (AID 588689); type: functional
# Protein skinhead-1 = molecular target: T3, Protein skinhead-1 (Caenorhabditis elegans, UniProt P34707); type: functional
# T3 sequence (P34707 whole entry): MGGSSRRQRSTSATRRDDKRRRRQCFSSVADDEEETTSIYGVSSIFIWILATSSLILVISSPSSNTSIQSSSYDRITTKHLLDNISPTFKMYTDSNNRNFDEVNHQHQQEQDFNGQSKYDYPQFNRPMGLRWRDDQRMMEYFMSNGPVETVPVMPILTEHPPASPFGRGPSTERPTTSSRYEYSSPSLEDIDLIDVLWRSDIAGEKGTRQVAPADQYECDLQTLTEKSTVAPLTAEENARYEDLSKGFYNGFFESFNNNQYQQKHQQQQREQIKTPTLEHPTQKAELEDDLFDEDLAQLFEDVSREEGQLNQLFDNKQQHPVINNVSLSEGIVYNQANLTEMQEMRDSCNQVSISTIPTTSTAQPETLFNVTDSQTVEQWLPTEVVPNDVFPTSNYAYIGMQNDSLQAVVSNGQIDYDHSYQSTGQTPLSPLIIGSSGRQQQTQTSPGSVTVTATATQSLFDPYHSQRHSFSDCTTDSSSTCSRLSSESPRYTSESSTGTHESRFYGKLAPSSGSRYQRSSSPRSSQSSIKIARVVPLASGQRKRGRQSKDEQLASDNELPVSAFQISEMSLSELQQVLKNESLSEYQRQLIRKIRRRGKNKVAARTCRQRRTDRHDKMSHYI
# [8] = general mammalian cell viability loss – activator set, cherry-pick, cytotoxicity control for miR-122 modulator project, dose response (AID 720690); type: functional, cell-based;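 note: HEK293T human cells scored for general mammalian cytotoxicity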
# Vero [9] = assay: cells; type: functional, cell-based; conditions: Chlorocebus sabaeus
# Vero [10] = assay: cells; type: functional; conditions: Chlorocebus sabaeus
# [11] = viability loss in HepG2 hepatoma cells – cell-based, ATP luminescence, cherry-pick, activator set 2, cytotoxicity control, dose response (AID 1053143); type: functional
# [12] = Luminescence Cell-Based Dose Confirmation HTS to Identify Inhibitors of Platelet Dense Granule Release. [Related pubchem assays: 1663 (Primary HTS), 1678 (Summary of Project)]; type: functional
# [13] = molecular target: T4, Heat shock factor protein 1 (Mus musculus, UniProt P38532); assay: decrease of HSF1-responsive luciferase luminescence – cell-based, NIH3T3, dose retest, confirmation (AID 2382); type: functional;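 note: NIH3T3 fibroblasts with HSF1-driven luciferase reporter stressed by proteasome inhibitor MG132; luminescence from HSF1-driven luciferase expression after 8 hours of MG132 stress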
# T4 sequence (P38532 whole entry): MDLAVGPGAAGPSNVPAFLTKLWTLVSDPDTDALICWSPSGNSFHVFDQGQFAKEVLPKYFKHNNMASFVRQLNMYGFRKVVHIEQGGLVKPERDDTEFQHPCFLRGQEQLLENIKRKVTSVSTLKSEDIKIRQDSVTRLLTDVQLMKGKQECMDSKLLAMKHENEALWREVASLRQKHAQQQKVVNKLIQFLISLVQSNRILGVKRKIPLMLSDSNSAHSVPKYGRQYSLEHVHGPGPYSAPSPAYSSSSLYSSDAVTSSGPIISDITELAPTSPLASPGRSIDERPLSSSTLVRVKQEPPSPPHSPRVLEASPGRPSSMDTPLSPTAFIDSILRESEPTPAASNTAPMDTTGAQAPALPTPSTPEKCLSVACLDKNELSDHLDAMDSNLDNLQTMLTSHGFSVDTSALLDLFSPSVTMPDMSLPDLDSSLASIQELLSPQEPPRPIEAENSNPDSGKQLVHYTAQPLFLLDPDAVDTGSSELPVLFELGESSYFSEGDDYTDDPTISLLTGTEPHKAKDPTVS
# [14] = molecular target: Luciferin 4-monooxygenase (Photinus pyralis, UniProt P08659); assay: inhibition of purified Photinus pyralis luciferase – biochemical, luminescence, dose response (AID 1891)
# [15] = blockers of HIV-1 ZM109 envelope-driven cell-cell fusion – HeLa effector, CEM target cells, luciferase, cherry-pick, dose response (AID 652058); type: functional, cell-based;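 note: luciferase signal from HIV-1 Env mediated cell-cell fusion of effector and target cells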
# [16] = blockers of HIV-1 envelope-mediated cell-cell fusion – cherry-pick, dose response (AID 652057); type: functional, cell-based
# [17] = off-target signal loss in HeLa-CEM21 co-culture – HeLa F-luc CTL cells, cherry-picked, counter-screen for HIV-1 Env fusion inhibitor project, dose response (AID 652040); type: functional, cell-based;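 note: potency for signal decrease marking cytotoxic or nonspecific inhibition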
# [18] = HIV-1 AD8 envelope cell-cell fusion blockers – cherry-pick, dose response (AID 652062); type: functional, cell-based;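 note: luciferase signal from cell-cell fusion driven by HIV-1 clade B AD8 Env; potency is for inhibitors of fusion seen as a drop in luminescence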
# Leucine aminopeptidase = molecular target: T5, Leucine aminopeptidase (Plasmodium falciparum 3D7, UniProt Q8IL11); assay: P. falciparum M17LAP inhibitors, primary screen, biochemical, fluorogenic H-Leu-NHMec substrate, 1536-well (AID 1619); type: functional
# T5 sequence (Q8IL11 whole entry): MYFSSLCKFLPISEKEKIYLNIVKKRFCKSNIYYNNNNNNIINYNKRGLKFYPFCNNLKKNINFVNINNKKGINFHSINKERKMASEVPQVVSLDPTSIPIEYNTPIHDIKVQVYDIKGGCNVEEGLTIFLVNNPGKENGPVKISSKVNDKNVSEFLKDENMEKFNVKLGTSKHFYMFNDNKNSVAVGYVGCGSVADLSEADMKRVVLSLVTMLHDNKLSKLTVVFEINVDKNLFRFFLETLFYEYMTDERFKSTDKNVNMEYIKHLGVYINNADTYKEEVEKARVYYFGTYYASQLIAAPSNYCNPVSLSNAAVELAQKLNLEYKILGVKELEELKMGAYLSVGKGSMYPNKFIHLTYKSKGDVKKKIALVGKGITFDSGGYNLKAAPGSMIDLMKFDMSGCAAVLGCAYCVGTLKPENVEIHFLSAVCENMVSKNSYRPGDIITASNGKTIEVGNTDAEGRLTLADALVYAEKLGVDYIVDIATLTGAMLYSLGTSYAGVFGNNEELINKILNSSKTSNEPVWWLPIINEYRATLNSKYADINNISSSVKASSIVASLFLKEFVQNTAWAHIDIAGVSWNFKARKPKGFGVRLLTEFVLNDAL
# [19] = viability loss in HEK293 cells – cell-based, plate reader, cherry-picked samples, cytotoxicity control, dose response (AID 743446); type: functional
# [20] = blockers of bursicon-stimulated LGR2 cAMP reporter – cell-based, HEK293, CRE-luciferase reporter, cherry pick, set 2, dose response (AID 743343); type: functional;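 note: transfected cells were stimulated with diluted bursicon conditioned medium after compound addition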
# [21] = toxicity toward HepG2 liver cells – cell-based, plate reader, cherry-pick, antagonist series, cytotoxicity control, dose response (AID 743416); type: functional
# [22] = A549 cell cytotoxicity, dose response, cytotoxicity control, plate reader, cherry-pick, antagonist series (AID 743412); type: functional, cell-based
# [23] = blockade of melanocortin 4 receptor signaling – cell-based, plate reader, cherry pick, counter-screen for LGR2 antagonist project, dose response (AID 743444); type: functional;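 note: transfected HEK 293 cells stimulated with alpha-MSH peptide; potency of inhibitors of the alpha-MSH evoked signal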
# [24] = molecular target: T6, Carboxy-terminal domain RNA polymerase II polypeptide A small phosphatase 1 (Homo sapiens, UniProt Q9GZU7); assay: CTDSP1 inhibitors, concentration-response, biochemical, absorbance readout, ultra-high-throughput screen actives (AID 540297); type: functional
# T6 sequence (Q9GZU7 whole entry): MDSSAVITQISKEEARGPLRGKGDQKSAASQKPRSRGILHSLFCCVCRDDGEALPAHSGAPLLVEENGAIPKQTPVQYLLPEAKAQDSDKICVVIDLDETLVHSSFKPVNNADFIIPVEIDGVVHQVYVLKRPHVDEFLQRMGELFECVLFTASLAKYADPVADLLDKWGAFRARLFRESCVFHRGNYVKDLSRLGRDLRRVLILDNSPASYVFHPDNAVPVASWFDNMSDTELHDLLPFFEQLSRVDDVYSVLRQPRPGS
# [25] = molecular target: Induced myeloid leukemia cell differentiation protein Mcl-1 (Homo sapiens, UniProt Q07820); type: functional
# cells [26] = type: functional, cell-based
# cells [27] = type: functional, cell-based; remark: listed apart in the source
# T2 sequence (P49327 whole entry): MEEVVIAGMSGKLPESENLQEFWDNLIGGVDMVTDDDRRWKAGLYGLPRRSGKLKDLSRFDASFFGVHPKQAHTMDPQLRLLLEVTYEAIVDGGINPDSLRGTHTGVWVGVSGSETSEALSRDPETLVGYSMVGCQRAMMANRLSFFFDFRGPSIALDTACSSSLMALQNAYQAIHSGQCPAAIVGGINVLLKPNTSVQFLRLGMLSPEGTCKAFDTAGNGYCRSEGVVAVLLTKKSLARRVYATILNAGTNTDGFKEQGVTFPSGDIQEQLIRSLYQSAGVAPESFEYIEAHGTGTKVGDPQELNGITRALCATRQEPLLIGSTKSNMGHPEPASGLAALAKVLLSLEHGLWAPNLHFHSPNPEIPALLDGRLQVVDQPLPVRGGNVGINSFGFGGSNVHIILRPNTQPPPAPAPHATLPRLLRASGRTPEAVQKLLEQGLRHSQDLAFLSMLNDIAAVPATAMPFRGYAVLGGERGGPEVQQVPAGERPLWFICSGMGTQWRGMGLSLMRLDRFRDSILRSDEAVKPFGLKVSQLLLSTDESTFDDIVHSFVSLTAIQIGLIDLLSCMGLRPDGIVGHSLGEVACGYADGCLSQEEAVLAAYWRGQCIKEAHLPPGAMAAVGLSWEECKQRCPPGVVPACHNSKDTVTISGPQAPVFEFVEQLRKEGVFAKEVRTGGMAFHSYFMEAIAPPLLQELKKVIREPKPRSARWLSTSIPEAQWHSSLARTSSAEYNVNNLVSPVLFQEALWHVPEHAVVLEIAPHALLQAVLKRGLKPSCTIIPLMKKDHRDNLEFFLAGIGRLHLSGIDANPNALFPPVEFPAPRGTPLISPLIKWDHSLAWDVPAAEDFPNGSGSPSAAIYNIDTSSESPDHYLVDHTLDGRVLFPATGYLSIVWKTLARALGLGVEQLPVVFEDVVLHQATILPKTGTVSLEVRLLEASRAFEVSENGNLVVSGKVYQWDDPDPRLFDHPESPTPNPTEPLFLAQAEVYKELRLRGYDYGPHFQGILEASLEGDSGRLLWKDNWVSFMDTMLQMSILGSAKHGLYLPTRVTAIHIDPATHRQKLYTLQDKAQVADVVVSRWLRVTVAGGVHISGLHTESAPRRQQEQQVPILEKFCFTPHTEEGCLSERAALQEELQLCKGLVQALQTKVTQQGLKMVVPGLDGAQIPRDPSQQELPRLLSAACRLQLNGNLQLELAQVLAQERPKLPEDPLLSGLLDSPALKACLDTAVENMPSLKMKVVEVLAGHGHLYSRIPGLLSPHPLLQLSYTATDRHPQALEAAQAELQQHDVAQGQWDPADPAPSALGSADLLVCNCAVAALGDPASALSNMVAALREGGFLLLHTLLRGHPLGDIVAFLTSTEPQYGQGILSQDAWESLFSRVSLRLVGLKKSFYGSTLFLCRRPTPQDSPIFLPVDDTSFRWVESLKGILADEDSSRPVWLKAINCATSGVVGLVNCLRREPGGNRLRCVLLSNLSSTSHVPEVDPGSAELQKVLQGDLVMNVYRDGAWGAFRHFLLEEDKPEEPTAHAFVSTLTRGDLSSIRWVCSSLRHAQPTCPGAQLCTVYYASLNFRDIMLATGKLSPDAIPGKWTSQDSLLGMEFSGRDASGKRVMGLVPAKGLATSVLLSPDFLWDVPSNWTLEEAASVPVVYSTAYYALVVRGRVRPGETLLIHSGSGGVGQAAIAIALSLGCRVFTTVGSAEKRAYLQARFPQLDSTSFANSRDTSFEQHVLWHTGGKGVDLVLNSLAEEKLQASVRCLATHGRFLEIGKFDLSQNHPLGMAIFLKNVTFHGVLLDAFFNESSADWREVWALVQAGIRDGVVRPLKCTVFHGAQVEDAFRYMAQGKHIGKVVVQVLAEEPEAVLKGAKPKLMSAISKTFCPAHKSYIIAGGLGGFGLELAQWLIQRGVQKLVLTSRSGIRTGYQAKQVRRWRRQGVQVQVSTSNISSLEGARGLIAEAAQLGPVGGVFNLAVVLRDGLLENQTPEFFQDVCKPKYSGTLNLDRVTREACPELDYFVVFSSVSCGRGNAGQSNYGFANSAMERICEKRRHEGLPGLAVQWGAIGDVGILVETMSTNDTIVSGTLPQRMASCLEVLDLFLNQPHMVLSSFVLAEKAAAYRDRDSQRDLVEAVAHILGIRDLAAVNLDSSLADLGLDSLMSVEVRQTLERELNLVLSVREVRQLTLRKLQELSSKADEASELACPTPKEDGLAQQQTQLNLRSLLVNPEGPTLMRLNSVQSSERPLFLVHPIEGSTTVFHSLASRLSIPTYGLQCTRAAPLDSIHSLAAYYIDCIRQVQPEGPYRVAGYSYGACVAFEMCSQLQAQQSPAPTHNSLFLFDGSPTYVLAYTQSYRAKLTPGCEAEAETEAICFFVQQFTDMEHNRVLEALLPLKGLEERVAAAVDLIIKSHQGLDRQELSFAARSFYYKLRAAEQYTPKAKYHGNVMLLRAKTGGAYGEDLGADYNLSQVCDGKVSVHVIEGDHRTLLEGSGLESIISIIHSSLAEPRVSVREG
# Chain of Genome polyprotein (P29990 2492-3391 limits assumed): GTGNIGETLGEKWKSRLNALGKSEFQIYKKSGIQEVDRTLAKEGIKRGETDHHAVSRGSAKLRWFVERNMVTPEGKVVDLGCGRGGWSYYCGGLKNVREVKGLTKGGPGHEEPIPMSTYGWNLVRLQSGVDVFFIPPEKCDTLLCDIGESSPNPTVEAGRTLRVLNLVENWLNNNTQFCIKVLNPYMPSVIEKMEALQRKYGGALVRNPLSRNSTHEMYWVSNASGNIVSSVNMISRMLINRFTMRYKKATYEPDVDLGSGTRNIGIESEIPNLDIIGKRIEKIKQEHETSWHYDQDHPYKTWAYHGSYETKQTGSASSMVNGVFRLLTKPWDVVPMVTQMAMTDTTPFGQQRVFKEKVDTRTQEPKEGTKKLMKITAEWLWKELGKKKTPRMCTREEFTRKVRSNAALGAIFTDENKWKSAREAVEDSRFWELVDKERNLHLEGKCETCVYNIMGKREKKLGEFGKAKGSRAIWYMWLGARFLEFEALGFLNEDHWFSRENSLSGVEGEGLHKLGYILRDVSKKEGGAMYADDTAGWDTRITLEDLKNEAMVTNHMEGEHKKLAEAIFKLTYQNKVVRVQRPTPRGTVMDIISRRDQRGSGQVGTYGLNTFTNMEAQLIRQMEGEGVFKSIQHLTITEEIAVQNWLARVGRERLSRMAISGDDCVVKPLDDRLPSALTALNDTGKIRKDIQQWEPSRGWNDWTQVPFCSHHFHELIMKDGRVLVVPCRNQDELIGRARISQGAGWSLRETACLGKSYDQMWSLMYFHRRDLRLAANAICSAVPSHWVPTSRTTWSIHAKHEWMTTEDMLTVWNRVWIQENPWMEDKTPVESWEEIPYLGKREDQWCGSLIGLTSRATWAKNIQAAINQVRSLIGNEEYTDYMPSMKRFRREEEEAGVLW
# Chain of Luciferin 4-monooxygenase (P08659 whole entry, the tested form may be a part): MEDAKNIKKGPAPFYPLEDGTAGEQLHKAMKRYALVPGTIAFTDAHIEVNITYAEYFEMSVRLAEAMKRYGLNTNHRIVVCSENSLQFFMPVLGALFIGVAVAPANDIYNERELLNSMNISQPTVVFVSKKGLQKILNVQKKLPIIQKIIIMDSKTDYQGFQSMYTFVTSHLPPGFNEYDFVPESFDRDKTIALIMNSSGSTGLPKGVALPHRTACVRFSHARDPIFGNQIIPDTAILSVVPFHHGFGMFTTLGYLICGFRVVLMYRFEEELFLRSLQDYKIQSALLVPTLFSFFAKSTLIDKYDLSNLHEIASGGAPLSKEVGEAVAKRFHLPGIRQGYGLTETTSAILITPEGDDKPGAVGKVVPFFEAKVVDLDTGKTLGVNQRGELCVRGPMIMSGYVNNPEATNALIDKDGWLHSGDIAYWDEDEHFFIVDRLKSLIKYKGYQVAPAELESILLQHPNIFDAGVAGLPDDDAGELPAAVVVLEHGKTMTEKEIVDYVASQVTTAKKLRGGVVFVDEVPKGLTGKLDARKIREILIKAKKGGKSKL
# Chain of Cytochrome P450 2C9 (P11712 whole entry): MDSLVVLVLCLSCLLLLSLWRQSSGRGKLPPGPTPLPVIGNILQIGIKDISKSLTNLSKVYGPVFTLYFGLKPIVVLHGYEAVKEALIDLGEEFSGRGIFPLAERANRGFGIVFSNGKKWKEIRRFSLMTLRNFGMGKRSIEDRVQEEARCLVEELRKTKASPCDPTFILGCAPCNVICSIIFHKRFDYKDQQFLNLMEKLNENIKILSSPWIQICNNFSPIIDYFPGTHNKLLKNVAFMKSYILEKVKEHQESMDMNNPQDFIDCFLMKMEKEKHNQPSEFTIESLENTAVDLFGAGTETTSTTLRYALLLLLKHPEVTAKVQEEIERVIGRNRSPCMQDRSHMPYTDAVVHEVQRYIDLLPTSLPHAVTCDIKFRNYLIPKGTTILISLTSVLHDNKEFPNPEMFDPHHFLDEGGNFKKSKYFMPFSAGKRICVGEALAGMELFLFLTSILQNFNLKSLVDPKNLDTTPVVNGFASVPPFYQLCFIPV
# Chain of Cytochrome P450 2D6 (P10635 whole entry): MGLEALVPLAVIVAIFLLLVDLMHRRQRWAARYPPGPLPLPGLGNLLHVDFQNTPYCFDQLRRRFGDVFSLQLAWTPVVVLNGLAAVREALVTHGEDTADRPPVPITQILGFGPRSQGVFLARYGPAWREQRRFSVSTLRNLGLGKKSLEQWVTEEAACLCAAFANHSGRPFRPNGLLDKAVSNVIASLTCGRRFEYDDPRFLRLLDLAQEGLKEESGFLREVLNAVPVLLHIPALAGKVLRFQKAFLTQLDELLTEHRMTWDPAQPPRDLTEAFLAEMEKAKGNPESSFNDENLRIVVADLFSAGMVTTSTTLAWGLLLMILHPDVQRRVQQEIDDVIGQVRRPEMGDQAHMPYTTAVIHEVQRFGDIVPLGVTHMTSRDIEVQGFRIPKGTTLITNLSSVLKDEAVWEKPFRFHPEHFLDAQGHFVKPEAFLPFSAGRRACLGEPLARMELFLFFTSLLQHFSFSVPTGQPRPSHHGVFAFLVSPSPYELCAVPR
smiles,measurement,setting,value
COc1ccccc1/C=C/C=N/N1CCN(Cc2ccc(Cl)cc2)CC1.Cl,AC50,Cytochrome P450 2C9,inconclusive
same,AC50,Cytochrome P450 2D6,8.91 µM (inconclusive)
same,AC50,Cytochrome P450 1A2,15.8 µM (inconclusive)
same,AC50,Cytochrome P450 2C19,6.31 µM (inconclusive)
Oc1cc(Nc2ccccc2)cc2cccnc12,AC50,[1],1.79 µM (active)
same,CC50,[2],7.2 µM (active)
same,AC50,[3],36 µM (active)
same,AC50,[4],6.62 µM (active)
O=C(CCN1C(=O)/C(=C/c2ccccc2Cl)SC1=S)Nc1ccccc1C(=O)O,IC50,Fatty acid synthase [5],5.37 µM (active)
same,IC50,Fatty acid synthase [6],6.5 µM (active)
same,AC50,[7],2.46 µM (active)
same,IC50,Genome polyprotein,77.7 µM (active)
same,IC50,Protein skinhead-1,> 100 µM (inactive)
COc1ccccc1NC(=O)Nc1nc(C(N)Cc2ccc(C(F)(F)F)cc2)cs1 (stereo not drawn),AC50,[1],10.3 µM (active)
same,AC50,[3],25.1 µM (active)
same,AC50,[4],24 µM (active)
Cc1ccccc1-c1ccc([C@@H]2[C@@H](CO)N3CCCCN(C(=O)Nc4ccc(F)cc4)C[C@@H]23)cc1,AC50,[8],31.1 µM (active)
Cc1ccc(C(=O)C[n+]2ccccc2C)cc1[N+](=O)[O-],IC50,Vero [9],5.84 µM (active)
N=c1c2c(ncn1CCCO)Oc1c(ccc3ccccc13)C2c1ccccc1 (stereo not drawn),CC50,Vero [10],15.4 µM (active)
same,AC50,[11],26 µM (active)
same,EC50,[12],> 112 µM (not active)
same,EC50,[13],> 195 µM (not active)
same,EC50,[14],> 112 µM (not active)
COC(=O)c1c(C)oc(C)c1S(=O)(=O)NC(c1ccccc1)c1ccccc1,AC50,[15],6.38 µM (active)
same,AC50,[16],5.64 µM (active)
same,AC50,[17],6.55 µM (active)
same,AC50,[18],6.05 µM (active)
Cc1occc1C(=O)Nc1sc2c(c1C(N)=O)CCCCC2,IC50,Leucine aminopeptidase,54.6 µM (active)
CCC1=C(CC2NCCc3ccccc32)CC2c3cc(OC)c(OC)cc3CCN2C1 (stereo not drawn),CC50,Vero [10],5.14 µM (active)
same,AC50,[19],33.6 µM (active)
same,AC50,[20],6.49 µM (active)
same,AC50,[21],4.16 µM (active)
same,AC50,[22],2.13 µM (active)
same,IC50,Vero [9],> 25 µM (active)
same,AC50,[23],7.63 µM (active)
COc1ccc(C(CC(=O)N2CCCC2)c2c(OC)cc(OC)c3c(-c4ccccc4)cc(=O)oc23)cc1 (stereo not drawn),IC50,[24],9.82 µM (active)
same,IC50,[25],4.62 µM (active)
CC(C)CN(C(=O)C(c1ccccc1)c1ccccc1)c1c(N)n(CC(C)C)c(=O)[nH]c1=O,AC50,[15],0.619 µM (active)
same,AC50,[16],1.62 µM (active)
same,AC50,[17],1.72 µM (active)
same,AC50,[18],1.91 µM (active)
COc1cc(NC(=O)c2cccs2)ccc1NC(=O)c1ccco1,AC50,[11],12 µM (active)
CN(C)C1=NC[C@H](Cc2ccccc2)N1CCCC1CCCC1,AC50,[1],2.63 µM (active)
same,AC50,[3],> 70 µM (inactive)
same,AC50,[4],2.5 µM (active)
O=C(Nc1ncccc1O)c1ccc2c(c1)OCO2,EC50,cells [26],51.7 µM (active)
same,EC50,cells [27],99.2 µM (active)
same,AC50,[11],26 µM (active)
